Experiments:
[1] = tested on: primary cultured rat hepatocytes; test: In vitro cytotoxicity in primary cultured rat hepatocytes; assay type: cell-based; details: 24 h treatment, cell morphology and LDH leakage, highest test concentration 300 μM; for LCC (lowest cytotoxic concentration): 300s = only slight cytotoxicity at 300 μM
Source text: In Vitro Cytotoxicity in Primary Cultured Rat Hepatocytes
Adult male Wistar rats were narcotized with sodium pentobarbital and hepatocytes were isolated according to a standard procedure, i.e. by in situ perfusion of the liver with a collagenase solution. The viability of the purified hepatocytes, checked by the trypan blue dye exclusion method was greater than 85%. The isolated hepatocytes were resuspended in standard Williams Medium E, without phenol red, supplemented (WME supp.) with transferrin (100 μg/ml), triiodothyronine (10 μg/ml), gentamicin (50 μg/ml), hydrocortison hemisuccinate (13.36 μg/ml), glucagon (5 μg/ml), HEPES (10 mM), inosin (10 μg/ml), insulin (10 μg/ml), streptomycin (100 μg/ml) and penicillin (100 U/ml) and 10% fetal bovine serum (FBS). The cells were plated in collagen-coated 24-well plates at an initial density of 2×10^5 cells/well. After 4 h for attachment to the culture-plates, the medium was aspirated and replaced by fresh WME supp. without FBS containing the test compounds and incubated for 24 h at 37° C. in a […] and 5% CO2 atmosphere. For each experiment, i.e., with each batch of hepatocytes, treatments with the test compounds were done in quadriplicate. Quadriplicate controls (treatment with the vehicle only) were also present on each culture plate.
Stock solutions of the test compounds were prepared in DMSO a few hours before treatment start. Appropriate dilutions of these stock solutions were added to the culture media just prior to the treatment in order to give final concentrations of 0, 3, 10, 30, 100 and 300 μM. The final concentration of the vehicle DMSO was 1% (v/v).
The morphology of the hepatocyte monolayers was monitored by light microscopy after 24 hours of exposure to the test compounds. Treatment related effects are described according to the following grading: • 0 No morphological alterations observed upon treatment when compared to the control cultures • 1-3 Treatment resulting in any morphological changes, e.g. intracellular granulation, vacuolization or cell death. Depending on the severity, these changes were regarded as slight (1), moderate (2) or strong (3). • K Treatment resulting in 100% dead cells and/or the complete detachment of the monolayer yielding a clear cell-free dish.
After 24 h treatment of the hepatocyte cultures, aliquots of culture medium were carefully collected and used for the analysis of lactate dehydrogenase (LDH) activity by spectrophotometry using the LDH cytotoxicity detection kit from Clontech (cat No. 630117, Mountain View, Calif., USA). For each experiment, additional cultures were used for the determination of total intracellular LDH activity at treatment start. For this purpose, 4 wells of cell culture per experiment were washed with cold saline before treatment start, sonicated in fresh medium and the homogenate was analyzed for total LDH activity. Enzyme activities in the culture media were assessed and expressed as percentage of the total activity present in the cultured hepatocytes at the beginning of the treatments.
The lowest cytotoxic concentration (LCC) and the no effect concentration (NoEC) are given for each compound, based on cell morphology and LDH leakage after 24 h treatment. LCC is defined as the lowest concentration of the test compound leading to a clear effect on the cultured rat hepatocytes (morphology grading≧2 or ≧2-fold increase in LDH leakage). A LCC value of >300 μM indicates the absence of effect on both endpoints at the highest test concentration of 300 μM. […] NoEC is defined as the highest test concentration of the compound which was without an effect on the cultured rat hepatocytes (morphology and LDH leakage).

hCRTH2 receptor [2] = target: T1, hCRTH2 receptor (Homo sapiens, UniProt Q9Y5Y4); test: hCRTH2 receptor membranes radioligand displacement assay; details: displacement of 3H-PGD2 (2.5 nM), HEK293-hCRTH2 membrane fragments, Binding-Buffer with 0.1% BSA
T1 construct: expressed in transfected cells; host or cells: HEK293 (recombinant HEK293-hCRTH2), membrane fragments
T1 sequence (Q9Y5Y4 1-395): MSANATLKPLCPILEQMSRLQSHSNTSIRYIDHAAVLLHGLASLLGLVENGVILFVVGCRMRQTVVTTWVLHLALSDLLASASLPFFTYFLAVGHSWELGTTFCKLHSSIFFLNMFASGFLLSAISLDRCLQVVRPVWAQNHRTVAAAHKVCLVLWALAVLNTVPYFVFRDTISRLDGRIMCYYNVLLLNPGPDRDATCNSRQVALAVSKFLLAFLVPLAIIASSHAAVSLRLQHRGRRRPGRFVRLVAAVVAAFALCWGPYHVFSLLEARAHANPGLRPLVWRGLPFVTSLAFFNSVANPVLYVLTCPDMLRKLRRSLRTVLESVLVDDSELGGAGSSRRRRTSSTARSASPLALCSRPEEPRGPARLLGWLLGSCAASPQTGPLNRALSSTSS
Description: Preparation of hCRTH2 Receptor Membranes and Radioligand Displacement Assay:
(§1) First, recombinant HEK293-hCRTH2 cells were detached from culture plates into 5 ml buffer A/plate (Buffer A: 5 mM Tris, 1 mM MgCl2-6H2O pH=7.4) using a rubber policeman. Cells were then transferred into centrifugation tubes and centrifuged for 5 min at 400 g. The cell pellet was resuspended in the same buffer and tubes were frozen at 80° C. Cells were thawed and membrane fragments were generated by homogenization using a polytron homogenizer (30 seconds). The membrane fragments were then centrifuged at 3000 g for 20 minutes and resuspended in buffer C (Buffer C: 75 mM Tris, 25 mM MgCl2, 250 mM Saccharose pH 7.4). Aliquots of membrane fragments were stored at −20° C.
(§2) Binding assay was performed in a final assay volume of 250 μl. First, 25 μl of test compound, previously diluted in Binding-Buffer (Binding-Buffer: 50 mM Tris-Base, 100 mM NaCl, 1 mM EDTA, 0.1% BSA (protease free), 0.01% NaN3, 10 mM MnCl2 pH 7.0) was placed into each well. After addition of 75 μl Binding-Buffer, 50 μl of the radioligand ^3H-PGD2 (at 2.5 nM (220.000 dpm/well) from ANAWA ART0662) was added to each well. Binding assay was started by addition of 100 μl CRTH2 membrane fragments, reaching a final concentration of 20 μg/well. For non-specific binding, PGD2 was added to the reaction mixture to […] final concentration. This assay mix was incubated for 90 minutes at room temperature and then filtered through a GF/C filter 96-well plate which was pre-soaked for 3 hours in 0.5% polyethyleneimine (PEI). The filter-wells were washed three times with ice cold Binding-Buffer. Then, 40 μl of Microscint-40 (Packard) was added to each well and the retained radioactivity quantified in a Topcount (Packard).

hCRTH2 receptor [3] = target: T1, hCRTH2 receptor; test: Radioligand displacement assay in presence of human serum albumin (HSA); details: displacement of 3H-PGD2, Binding-Buffer with 0.5% human serum albumin instead of 0.1% BSA
Description: as §1, §2
Radioligand Displacement Assay-Human Serum Albumin (HSA):
Radioligand displacement assay in presence of human serum albumin (HSA) was performed as described above, with following modifications. Binding-Buffer-HSA: Binding-buffer+0.5% Sigma Albumin from Human serum A1887 (instead of 0.1% BSA). A volume of 25 μl test compound, previously diluted in Binding-Buffer-HSA was placed into each well. After addition of 75 μl Binding-Buffer-HSA, 50 μl of ^3H-PGD2 (at 2.5 nM (220.000 dpm/well) from ANAWA ART0662) was added to each well. Remaining protocol was identical as described above.

[4] = tested on: eosinophils (PGD2-induced shape change); test: Eosinophil shape change assay with human plasma; assay type: cell-based; details: human polymorphonuclear cells, 50% human plasma, activated with PGD2 100 nM, flow cytometry forward-scatter
Description: Eosinophil Shape Change Assay with Human Plasma
After obtaining informed consent, blood samples were drawn by venipuncture according to the protocol approved by the ethics committee of Basel, Switzerland. Polymorphonuclear leukocytes (containing eosinophils, basophils and neutrophils) were isolated using the Polymorphprep™ method (Axis-Shield). In brief, anticoagulated whole blood was layered onto a Polymorphprep gradient (density 1.113 g/ml) and centrifuged at 500 g for 30 min. The polymorphonuclear cell fraction was harvested and depleted for erythrocytes by hypotonic saline lysis.
The polymorphonuclear cells were resuspended in assay buffer (1×PBS with Ca^2+/Mg^2+ supplemented with 0.1% BSA, 10 mM HEPES, and 10 mM Glucose, pH 7.4) at 5×10^6 cells/ml and stained with anti-CD49d-APC ((APC=Allophycocyanin) for 1 hour at RT. Test compounds, at various concentrations, were preincubated 10 min in human plasma (anticoagulated with a thrombin inhibitor). Then, human plasma was added to the polymorphonuclear cells to 50% of final assay volume with polymorphonuclear cells at 4×10^6 cells/ml. After incubation for 10 minutes at 37° C., the polymorphonuclear cells were activated for 5 min at 37° C. by addition of PGD2 at 100 nM final concentration. Activation was stopped by addition of 0.5 ml paraformaldehyde (1%).
Immediately after fixation with paraformaldehyde, the samples were analyzed by FACSCanto flow cytometer (BD Biosciences) and target cells were identified by their forward-scatter (FSC) and side-scatter (SSC) characteristics. Eosinophils were identified by the anti-CD49d-APC signal and their characteristic side-scatter (SSC) profile. Shape change responses, indicative of eosinophil activation, were quantified as the percent of cells with an increased forward-scatter.

| Compound | NoEC (no effect concentration) [1] | LCC (lowest cytotoxic concentration) [1] | IC50 (hCRTH2 receptor [2]) | IC50 (hCRTH2 receptor [3]) | IC50 [4] |
| --- | --- | --- | --- | --- | --- |
| CN(c1ncc(Cl)cn1)[C@H]1CCc2c(c3ncccc3n2CC(=O)O)C1 [drawing 32] | 30 µM | 300 µM |  |  |  |
| COc1ccc2c(n1)c1c(n2CC(=O)O)CCC(N(C)c2ncc(Cl)cn2)C1 (stereo not drawn) [Example 3, 2-(8-((5-chloropyrimidin-2-yl)(methyl)amino)-2-methoxy-6,7,8,9-tetrahydro-5H-pyrido[3,2-b]indol-5-yl)acetic acid] |  |  | 13 nM | 13 nM | 148 nM |
| CN(c1ncc(Cl)cn1)[C@H]1CCc2c(c3ncccc3n2CC(=O)O)C1 [drawing 31] | >300 µM | >300 µM |  |  |  |
| CN(c1ncc(Cl)cn1)[C@H]1CCc2c(c3nc(F)ccc3n2CC(=O)O)C1 [drawing 33] | >300 µM | >300 µM |  |  |  |
| CN(c1ncc(Cl)cn1)[C@H]1CCc2c(c3cc(F)ccc3n2CC(=O)O)C1 | 30 µM | 300 µM |  |  |  |
| CN(c1ncc(Cl)cn1)C1CCc2c(c3nc(F)ccc3n2CC(=O)O)C1 (stereo not drawn) [drawing 28] | >300 µM | >300 µM |  |  |  |
| CN(c1ncc(Cl)cn1)C1CCc2c(c3nc(F)ccc3n2CC(=O)O)C1 (stereo not drawn) [Example 2, 2-(8-((5-chloropyrimidin-2-yl)(methyl)amino)-2-fluoro-6,7,8,9-tetrahydro-5H-pyrido[3,2-b]indol-5-yl)acetic acid] |  |  | 3.1 nM | 2.3 nM | 4.2 nM |
| Cc1ccc2c(n1)c1c(n2CC(=O)O)CCC(N(C)c2ncc(Cl)cn2)C1 (stereo not drawn) [Example 1, 2-(8-((5-chloropyrimidin-2-yl)(methyl)amino)-2-methyl-6,7,8,9-tetrahydro-5H-pyrido[3,2-b]indol-5-yl)acetic acid] |  |  | 1.9 nM | 3.9 nM | 71 nM |
| CN(c1ncc(Cl)cn1)C1CCc2c(c3nc(C(F)(F)F)ccc3n2CC(=O)O)C1 (stereo not drawn) [Example 4, 2-(8-((5-chloropyrimidin-2-yl)(methyl)amino)-2-(trifluoromethyl)-6,7,8,9-tetrahydro-5H-pyrido[3,2-b]indol-5-yl)acetic acid] |  |  | 10 nM | 16 nM | 417 nM |
| O=C(O)Cn1c2c(c3nc(F)ccc31)C[C@@H](Nc1ncc(Cl)cn1)CC2 [Example 8, (S)-2-(8-((5-chloropyrimidin-2-yl)amino)-2-fluoro-6,7,8,9-tetrahydro-5H-pyrido[3,2-b]indol-5-yl)acetic acid] |  |  | 19 nM | 22 nM | 32 nM |
| COc1ccc2c(n1)c1c(n2CC(=O)O)CCC(N(C)c2ncc(Cl)cn2)C1 (stereo not drawn) [drawing 29] | 100 µM | 300 s |  |  |  |
| CN(c1ncc(Cl)cn1)C1CCc2c(c3nc(C(F)(F)F)ccc3n2CC(=O)O)C1 (stereo not drawn) [drawing 30] | 100 µM | 300 s |  |  |  |
| CN(c1ncc(Cl)cn1)[C@H]1CCc2c(c3ncccc3n2CC(=O)O)C1 [Example 6, (S)-2-(8-((5-chloropyrimidin-2-yl)(methyl)amino)-6,7,8,9-tetrahydro-5H-pyrido[3,2-b]indol-5-yl)acetic acid] |  |  | 2.3 nM | 2.1 nM | 5.8 nM |
| O=C(O)Cn1c2c(c3nc(F)ccc31)C[C@@H](Nc1ncc(Cl)cn1)CC2 [drawing 35] | >300 µM | >300 µM |  |  |  |
| CN(c1ncc(Cl)cn1)[C@H]1CCc2c(c3nc(F)ccc3n2CC(=O)O)C1 [Example 7, (S)-2-(8-((5-chloropyrimidin-2-yl)(methyl)amino)-2-fluoro-6,7,8,9-tetrahydro-5H-pyrido[3,2-b]indol-5-yl)acetic acid] |  |  | 5.6 nM | 5 nM | 3.1 nM |
| Cc1ccc2c(n1)c1c(n2CC(=O)O)CCC(N(C)c2ncc(Cl)cn2)C1 (stereo not drawn) [drawing 27] | >300 µM | >300 µM |  |  |  |
